Test results taken from ChEMBL document CHEMBL4732190, “Identification of Potent and Long-Acting Single-Chain Peptide Mimetics of Human Relaxin-2 for Cardiovascular Diseases” (J Med Chem, 2021).
≈ marks a conversion by molar mass, not a printed value. *1 amine or outer side, *2 acyl side, *3 side chain or, on linkers, in order; H or OH if unused. Where a SMILES comes first, the peptide text is derived from it. [ ]: non-standard residue; d: D form. The star is where a group is joined. X5 = CCCCCCCCCCCCCCCCCCC(=O)[C@H](CCC(=O)O)NC(=O)[C@H](CCC(=O)O)NC(=O)[C@H](CCC(=O)O)NC(=O)[C@H](CCCCN)NC(=O)COCC(=O)NCCCOCCOCCOCCCNC(=O)COCC(=O)NCCCOCCOCCOCCCNC(=O)COCC(=O)NCCCOCCOCCOCCCN*; PEG11 = NCCOCCOCCOCCOCCOCCOCCOCCOCCOCCOCCOCCC(=O)O; X3 = CCCCCCCCCCCCCCCCCCC(=O)[C@H](CCC(N)=O)N*; X6 = CCCCCCCCCCCCCCCCCCC(=O)[C@H](CCC(=O)O)N*; β2hAla(2S) = C[C@@H](CN[*:1])C(=O)[*:2]; hLys = NCCCCC[C@H](N)C(=O)O; Nle = CCCC[C@H](N)C(=O)O; AEEA = NCCOCCOCC(=O)O

Columns and labels:
Relaxin receptor 1 [1] = target: T1, Relaxin receptor 1 (Homo sapiens, UniProt Q9HBX9); test: Agonist activity at RXFP1 endogenously expressed in human OVCAR-5 cells assessed as increase in IBMX-induced cAMP accumulation pretreated with IBMX for 40 mins followed by compound addition and measured after 30 mins by HTRF assay; assay type: functional, cell-based
T1 sequence (Q9HBX9 whole entry): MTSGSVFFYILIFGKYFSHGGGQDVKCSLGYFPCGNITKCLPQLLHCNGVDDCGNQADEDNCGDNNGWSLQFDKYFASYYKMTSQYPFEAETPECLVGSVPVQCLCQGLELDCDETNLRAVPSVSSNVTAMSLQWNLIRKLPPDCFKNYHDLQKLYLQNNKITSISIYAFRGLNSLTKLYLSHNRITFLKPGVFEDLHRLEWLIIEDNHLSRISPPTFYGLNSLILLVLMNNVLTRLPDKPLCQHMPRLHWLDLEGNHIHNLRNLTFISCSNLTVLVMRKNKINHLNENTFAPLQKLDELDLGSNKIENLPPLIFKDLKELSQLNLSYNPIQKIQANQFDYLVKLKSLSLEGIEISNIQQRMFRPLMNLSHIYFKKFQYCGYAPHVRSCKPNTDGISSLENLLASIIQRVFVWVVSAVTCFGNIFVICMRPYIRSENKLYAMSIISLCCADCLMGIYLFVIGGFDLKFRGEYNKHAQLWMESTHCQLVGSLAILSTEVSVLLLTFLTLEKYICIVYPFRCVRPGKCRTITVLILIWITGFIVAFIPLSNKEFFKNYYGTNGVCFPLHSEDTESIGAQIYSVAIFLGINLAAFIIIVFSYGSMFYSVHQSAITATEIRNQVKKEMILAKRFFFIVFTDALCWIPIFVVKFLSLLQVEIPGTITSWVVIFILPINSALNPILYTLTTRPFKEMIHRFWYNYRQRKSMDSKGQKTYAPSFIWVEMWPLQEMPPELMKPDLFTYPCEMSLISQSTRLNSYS

[2] = target: T2, Relaxin receptor 1 (Homo sapiens) (UniProt Q9HBX9); test: Agonist activity at RXFP1 endogenously expressed in human OVCAR-5 cells assessed as increase in IBMX-induced cAMP accumulation pretreated with IBMX for 40 mins followed by compound addition and measured after 30 mins by HTRF assay relative to relaxin; assay type: functional, cell-based; conditions: filed as agonist
T2 sequence (whole entry): T1 sequence (Q9HBX9 whole entry)

[3] = Half life in Sprague-Dawley rat at 1 mg/kg, iv measured upto 72 hrs by LC-HRMS analysis; assay type: ADME, organism-based; conditions: in vivo
Relaxin receptor 1 [4] = target: T1, Relaxin receptor 1; test: Agonist activity at RXFP1 endogenously expressed in human OVCAR-5 cells assessed as increase in IBMX-induced cAMP accumulation pretreated with IBMX for 40 mins followed by compound addition and measured after 30 mins in presence of 2 % HSA by HTRF assay; assay type: functional, cell-based
[5] = target: T2, Relaxin receptor 1 (Homo sapiens); test: Agonist activity at RXFP1 endogenously expressed in human OVCAR-5 cells assessed as increase in IBMX-induced cAMP accumulation pretreated with IBMX for 40 mins followed by compound addition and measured after 30 mins in presence of 2 % HSA by HTRF assay relative to control; assay type: functional, cell-based; conditions: filed as agonist
[6] = target: T2, Relaxin receptor 1 (Homo sapiens); test: Selectivity ratio of EC50 for agonist activity at RXFP1 endogenously expressed in human OVCAR-5 cells in presence of 2 % HSA to EC50 for agonist activity at RXFP1 endogenously expressed in human OVCAR-5 cells in absence of HSA; assay type: cell-based
[7] = Stability in human plasma assessed as parent compound remaining level at 5 uM remaining after 4 hrs; assay type: ADME, cell-free; conditions: read-out: Stabilty
[8] = Aqueous solubility of compound in phosphate buffer at pH 7.4 measured after 24 hrs by UPLC analysis; assay type: physicochemical
[9] = Stability in rat plasma assessed as parent compound remaining level at 5 uM remaining after 4 hrs; assay type: ADME, cell-free; conditions: read-out: Stabilty
[10] = Aqueous solubility of compound in acetate buffer at pH 4.5 measured after 24 hrs by UPLC analysis; assay type: physicochemical

Structure (SMILES)	EC50 (Relaxin receptor 1 [1]) [nM]	Emax [2] [%]	half-life [3] [h]	EC50 (Relaxin receptor 1 [4]) [nM]	Emax [5] [%]	Ratio EC50 [6]	remaining at 4 h, 5 µM [7] [%]	solubility at 24 h [8] [µg/mL]	remaining at 4 h, 5 µM [9] [%]	solubility at 24 h [10] [µg/mL]
CCCCCCCCCCCCCCCCCCC(=O)[C@H](CCC(=O)O)NC(=O)[C@H](CCC(=O)O)NC(=O)[C@H](CCC(=O)O)NC(=O)[C@H](CCCCN)NC(=O)COCC(=O)NCCCOCCOCCOCCCNC(=O)COCC(=O)NCCCOCCOCCOCCCNC(=O)COCC(=O)NCCCOCCOCCOCCCNC(=O)[C@H](CCCCCNC(C)=O)NC(=O)[C@H](CCCCN)NC(=O)[C@H](CCCCN)NC(=O)[C@H](CCCNC(=N)N)NC(=O)[C@@H](C)CNC(=O)[C@H](CO)NC(=O)[C@H](Cc1c[nH]c2ccccc12)NC(=O)[C@@H](NC(=O)[C@H](CO)NC(=O)[C@H](CCCCCNC(C)=O)NC(=O)[C@H](CCCCN)NC(=O)[C@H](CCCC)NC(=O)[C@H](CCSC)NC(=O)CNC(=O)[C@H](CCC(=O)O)NC(=O)[C@@H](C)CNC(=O)[C@@H](C)CNC(=O)[C@@H](NC(=O)[C@H](CCCCCNC(C)=O)NC(=O)[C@H](CCCCN)NC(=O)[C@H](C)NC(=O)[C@H](CCCNC(=N)N)NC(=O)[C@@H](NC(=O)[C@H](CCCCN)NC(=O)[C@H](CCC(=O)O)NC(=O)[C@H](CCCNC(=N)N)NC(=O)[C@H](CCC(=O)O)NC(=O)CNC(=O)[C@H](CCC(=O)O)NC(=O)[C@H](CC(C)C)NC(C)=O)C(C)C)[C@@H](C)CC)[C@@H](C)O (Ac-LEGEREKVRAK[hLys](Ac)I[β2hAla(2S)][β2hAla(2S)]EGM[Nle]K[hLys](Ac)STWS[β2hAla(2S)]RKK[hLys](Ac)-X5)	0.4	88	3.96	24.5	85	61				
CCCCCCCCCCCCCCCCCCC(=O)[C@H](CCC(=O)O)NC(=O)[C@H](CCC(=O)O)NC(=O)[C@H](CCC(=O)O)NC(=O)[C@H](CCCCN)NC(=O)COCCOCCNC(=O)COCCOCCNC(=O)COCCOCCNC(=O)[C@H](CCCCCNC(C)=O)NC(=O)[C@H](CCCCN)NC(=O)[C@H](CCCCN)NC(=O)[C@H](CCCNC(=N)N)NC(=O)[C@@H](C)CNC(=O)[C@H](CO)NC(=O)[C@H](Cc1c[nH]c2ccccc12)NC(=O)[C@@H](NC(=O)[C@H](CO)NC(=O)[C@H](CCCCCNC(C)=O)NC(=O)[C@H](CCCCN)NC(=O)[C@H](CCCC)NC(=O)[C@H](CCSC)NC(=O)CNC(=O)[C@H](CCC(=O)O)NC(=O)[C@@H](C)CNC(=O)[C@@H](C)CNC(=O)[C@@H](NC(=O)[C@H](CCCCCNC(C)=O)NC(=O)[C@H](CCCCN)NC(=O)[C@H](C)NC(=O)[C@H](CCCNC(=N)N)NC(=O)[C@@H](NC(=O)[C@H](CCCCN)NC(=O)[C@H](CCC(=O)O)NC(=O)[C@H](CCCNC(=N)N)NC(=O)[C@H](CCC(=O)O)NC(=O)CNC(=O)[C@H](CCC(=O)O)NC(=O)[C@H](CC(C)C)NC(C)=O)C(C)C)[C@@H](C)CC)[C@@H](C)O (Ac-LEGEREKVRAK[hLys](Ac)I[β2hAla(2S)][β2hAla(2S)]EGM[Nle]K[hLys](Ac)STWS[β2hAla(2S)]RKK[hLys](Ac)[AEEA][AEEA][AEEA]KEE-X6)	0.1	88	3.4	19.8	82	198				
CCCCCCCCCCCCCCCCCCC(=O)[C@H](CCC(N)=O)NC(=O)[C@H](CCC(=O)O)NC(=O)[C@H](CCC(=O)O)NC(=O)[C@H](CCCCN)NC(=O)CCOCCOCCOCCOCCOCCOCCOCCOCCOCCOCCOCCNC(=O)[C@H](CCCCCNC(C)=O)NC(=O)[C@H](CCCCN)NC(=O)[C@@H](C)CNC(=O)[C@@H](C)CNC(=O)[C@@H](NC(=O)[C@H](CCCCCNC(C)=O)NC(=O)[C@H](CCCCN)NC(=O)[C@H](C)NC(=O)[C@H](CCCNC(=N)N)NC(=O)[C@@H](NC(=O)[C@H](CCCCN)NC(=O)[C@H](CCC(=O)O)NC(=O)[C@H](CCCNC(=N)N)NC(=O)[C@H](CCC(=O)O)NC(=O)CNC(=O)[C@H](CCC(=O)O)NC(=O)[C@H](CC(C)C)NC(C)=O)C(C)C)[C@@H](C)CC (Ac-LEGEREKVRAK[hLys](Ac)I[β2hAla(2S)][β2hAla(2S)]K[hLys](Ac)[PEG11]KEE-X3)	0.6	95	43	9	84	15	93	5400 (≈ 1570 µM)	80	
CC[C@H](C)[C@H](NC(=O)[C@H](CCC(N)=O)NC(=O)[C@H](C)NC(=O)[C@H](CCCNC(=N)N)NC(=O)[C@@H](NC(=O)[C@H](CCCCN)NC(=O)[C@H](CCC(=O)O)NC(=O)[C@H](CCCNC(=N)N)NC(=O)CNC(=O)[C@H](CCC(=O)O)NC(=O)[C@H](CC(C)C)NC(=O)[C@H](CCCCN)NC(=O)[C@@H](NC(=O)[C@@H](NC(C)=O)C(C)C)[C@@H](C)CC)C(C)C)C(=O)NC[C@H](C)C(=O)NC[C@H](C)C(=O)N[C@@H](CCC(=O)O)C(=O)NCC(=O)N[C@@H](CCSC)C(=O)N[C@@H](CO)C(=O)N[C@@H](CCCCN)C(=O)N[C@@H](Cc1c[nH]c2ccccc12)C(=O)N[C@@H](CO)C(=O)N[C@@H](CCCCN)C(=O)N[C@@H](CCCNC(=N)N)C(=O)N[C@@H](CCCCN)C(=O)N[C@@H](CCCCN)C(N)=O (HELM PEPTIDE1{[ac].V.I.K.L.E.G.R.E.K.V.R.A.Q.I.[C[C@@H](CN[*:1])C(=O)[*:2]].[C[C@@H](CN[*:1])C(=O)[*:2]].E.G.M.S.K.W.S.K.R.K.K.[am]}$$$$V2.0)	17	99					58	5300 (≈ 1660 µM)	37	5100 (≈ 1600 µM)
CC[C@H](C)[C@H](NC(=O)[C@H](CCC(N)=O)NC(=O)[C@H](C)NC(=O)[C@H](CCCNC(=N)N)NC(=O)[C@@H](NC(=O)[C@H](CC(C)C)NC(=O)[C@H](CCC(=O)O)NC(=O)[C@H](CCCNC(=N)N)NC(=O)CNC(=O)[C@H](CO)NC(=O)[C@H](CC(C)C)NC(=O)[C@H](CCCCN)NC(=O)[C@@H](NC(=O)[C@@H](NC(C)=O)C(C)C)[C@@H](C)CC)C(C)C)C(=O)NC[C@H](C)C(=O)N[C@H](C(=O)N[C@@H](CO)C(=O)NCC(=O)N[C@@H](CCSC)C(=O)N[C@@H](CO)C(=O)N[C@H](C(=O)N[C@@H](Cc1c[nH]c2ccccc12)C(=O)N[C@@H](CO)C(=O)N[C@@H](CCCCN)C(=O)N[C@@H](CCCNC(=N)N)C(=O)N[C@@H](CCCCN)C(=O)N[C@@H](CCCCN)C(N)=O)[C@@H](C)O)[C@@H](C)CC (HELM PEPTIDE1{[ac].V.I.K.L.S.G.R.E.L.V.R.A.Q.I.[C[C@@H](CN[*:1])C(=O)[*:2]].I.S.G.M.S.T.W.S.K.R.K.K.[am]}$$$$V2.0)	202	90					54	4600 (≈ 1480 µM)	37	5700 (≈ 1840 µM)
